{"source": "patent US20040266885A1", "about": "“Wood preservative compositions” (priority 2001, published 2004)", "system": "Coptotermes formosanus", "conditions": "for Mean Rating (termite attack): mean of 4 specimens; for Mean Rating (termite attack) / Termite Attack Rating: 4 weeks sand culture; for Termite Attack Rating: single specimen", "text": "A laboratory test was undertaken to determine the toxic values of novel actives against termites. The active materials used were TBBA, TBBE [4,4′-ethylidenebis(2,6-dibromophenol)] [CAS RN=12639-25-3] (Sample Number 1392-82-03); TBBZ [4,4′-cyclohexylidene(2,6-dibromophenol)] [CAS RN=53350-96-2] (Sample Number 1392-72-03) and TBA, 2,2′,6-tribromo-4,4′-isopropylidenediphenol, CAS 6386-73-8 (Sample Number 1392-75-03).\nThe test was undertaken largely according to the strictures laid down in ASTM 3345-74 (the American standard laboratory test to assess the termite resistant properties of wood to wood destroying termites). The test method allows for the exposure of treated buried wood blocks to termites (Reticulitermes or Coptotermes spp.) over a period of 4 weeks. Efficacy of the product is determined by the extent of termite damage to the treated timber specimens through a scoring system. The test was slightly modified from the standard ASTM test by reducing the number of replicate wood specimens from 5 to 4.\nScore 1: Attempted attack\nThe toxic values of the preservative product (in kg/m^3 of wood) fall between two values as follows:\n1) The lowest concentration which protects the wood (i.e. the concentration at which none of the test specimens show a degree of attack greater than 1).\nThe termites employed were Coptotermes formosanus.\nAll wood bock specimens were of Southern Yellow Pine sapwood (Pinus spp.) with dimensions of 25.4×25.4×6.4 mm in accordance with ASTM D3345-74. All blocks were vacuum impregnated with the relevant solutions in accordance with ASTM D3345-74. Distribution of blocks in the test was as follows:\nThe test specimens were conditioned and subjected to a leaching schedule (after vacuum impregnation) as stipulated in ASTM D1413-76 (as recommended in ASTM D3345-74). All test specimens were then air dried for two weeks to constant weight.\nThe specimens were each positioned at the base of a 500 ml polyethylene culture jar (numbered according to each test specimen) and covered with 200 g of sand (pre-washed, sterilised and air conditioned in the laboratory) to which was added 25 g of de-ionised water. A further two containers containing watered sand but no timber were also prepared. All the jars were sealed (lids pre-pierced and covered with stainless steel mesh for aeration).\nTwo days after specimen placement, 200 termites were added to each culture jar (90% workers and 10% soldiers) and the jars re-sealed. The jars were incubated at a mean temperature and relative humidity of 27.5° C. and 75-90% for 4 weeks. The containers were provided with an artificial lighting regime of 10 hours light and 14 hours darkness.\nAfter 1 week and 4 weeks each container was examined to determine termite mortality and normal tunneling behaviour patterns as follows:\nIs there tunneling present: YES/NO\nAre there any termites on the surface of the soil: YES/NO (if yes how many, i.e. 1-25% of pop, 26-50% of pop, 51-100% of pop.)\nAre any dead termites visible: YES/NO (if yes how many, 1-33%, 34-66%, 67-100%)\nAfter 4 weeks the test specimens were removed and cleaned of debris. Each block was examined and visually rated for termite damage using the scoring system detailed above.", "key": {"[1]": {"conditions": "1 week, solution conc. 1%, ethanol carrier"}, "[2]": {"conditions": "1 week, solution conc. 3%, ethanol carrier"}, "[3]": {"conditions": "1 week, solution conc. 5%, ethanol carrier"}, "[4]": {"conditions": "1 week, solution conc. 7%, ethanol carrier"}, "[5]": {"conditions": "1 week, solution conc. 10%, ethanol carrier"}, "[6]": {"conditions": "4 weeks, solution conc. 1%, ethanol carrier"}, "[7]": {"conditions": "4 weeks, solution conc. 3%, ethanol carrier"}, "[8]": {"conditions": "4 weeks, solution conc. 5%, ethanol carrier"}, "[9]": {"conditions": "4 weeks, solution conc. 7%, ethanol carrier"}, "[10]": {"conditions": "4 weeks, solution conc. 10%, ethanol carrier"}, "[11]": {"conditions": "solution conc. 1%, ethanol carrier"}, "[12]": {"conditions": "solution conc. 3%, ethanol carrier"}, "[13]": {"conditions": "solution conc. 5%, ethanol carrier"}, "[14]": {"conditions": "solution conc. 7%, ethanol carrier"}, "[15]": {"conditions": "solution conc. 10%, ethanol carrier"}}, "note": "Values joined by “and” are separate entries in the source; they are usually repeats but may differ in a detail not shown here. Identical values can stand only once. “Also recorded” adds a separate entry of the source. Like-named read-outs stand apart in the source and are kept apart here.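 Wherever Termite Attack Rating is given: score 0 no attack 2 slight 3 average 4 strong attack.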"}
{"smiles": "Oc1c(Br)cc(C2(c3cc(Br)c(O)c(Br)c3)CCCCC2)cc1Br", "note": "[TBBZ, 4,4′-cyclohexylidene(2,6-dibromophenol)]", "values": [{"measurement": "Surface Activity (termites on the surface of the soil)", "setting": "[1]", "value": "No/No"}, {"measurement": "Tunneling Activity", "setting": "[1]", "value": "Yes/Yes"}, {"measurement": "Visible Mortality", "setting": "[1]", "value": "No/No"}, {"measurement": "Surface Activity (termites on the surface of the soil)", "setting": "[2]", "value": "No/No"}, {"measurement": "Tunneling Activity", "setting": "[2]", "value": "Yes/Yes"}, {"measurement": "Visible Mortality", "setting": "[2]", "value": "No"}, {"measurement": "Surface Activity (termites on the surface of the soil)", "setting": "[3]", "value": "No/No"}, {"measurement": "Tunneling Activity", "setting": "[3]", "value": "Yes/Yes"}, {"measurement": "Visible Mortality", "setting": "[3]", "value": "No"}, {"measurement": "Surface Activity (termites on the surface of the soil)", "setting": "[4]", "value": "1-25 % (of pop.)"}, {"measurement": "Tunneling Activity", "setting": "[4]", "value": "Yes/Yes"}, {"measurement": "Visible Mortality", "setting": "[4]", "value": "No"}, {"measurement": "Surface Activity (termites on the surface of the soil)", "setting": "[5]", "value": "1-25 % (of pop.)"}, {"measurement": "Tunneling Activity", "setting": "[5]", "value": "Yes/Yes"}, {"measurement": "Visible Mortality", "setting": "[5]", "value": "No"}, {"measurement": "Surface Activity (termites on the surface of the soil)", "setting": "[6]", "value": "No/No"}, {"measurement": "Tunneling Activity", "setting": "[6]", "value": "Yes/Yes"}, {"measurement": "Visible Mortality", "setting": "[6]", "value": "No/No"}, {"measurement": "Surface Activity (termites on the surface of the soil)", "setting": "[7]", "value": "No/No"}, {"measurement": "Tunneling Activity", "setting": "[7]", "value": "Yes/Yes"}, {"measurement": "Visible Mortality", "setting": "[7]", "value": "1-33 % (of pop.)"}, {"measurement": "Surface Activity (termites on the surface of the soil)", "setting": "[8]", "value": "No/No"}, {"measurement": "Tunneling Activity", "setting": "[8]", "value": "Yes/Yes"}, {"measurement": "Visible Mortality", "setting": "[8]", "value": "34-66 % (of pop.)"}, {"measurement": "Surface Activity (termites on the surface of the soil)", "setting": "[9]", "value": "No"}, {"measurement": "Tunneling Activity", "setting": "[9]", "value": "Yes/Yes"}, {"measurement": "Visible Mortality", "setting": "[9]", "value": "34-66 % (of pop.)"}, {"measurement": "Surface Activity (termites on the surface of the soil)", "setting": "[10]", "value": "No"}, {"measurement": "Tunneling Activity", "setting": "[10]", "value": "Yes/Yes"}, {"measurement": "Visible Mortality", "setting": "[10]", "value": "67-100 % (of pop.)"}, {"measurement": "reduction in termite attack", "setting": "concentrated solutions, followed by leaching", "value": "a significant reduction in termite attack; also recorded: the higher concentrations do reduce termite attack"}, {"measurement": "repellent effect on termites (surface activity data)", "setting": "ethanol carrier", "value": "a degree of termite repellency"}, {"measurement": "Mean Rating (termite attack)", "setting": "[11]", "value": 2.50}, {"measurement": "Termite Attack Rating", "setting": "[11]", "value": "4 and 2"}, {"measurement": "Mean Rating (termite attack)", "setting": "[12]", "value": 1.50}, {"measurement": "Termite Attack Rating", "setting": "[12]", "value": "2 and 1"}, {"measurement": "Mean Rating (termite attack)", "setting": "[13]", "value": 1.25}, {"measurement": "Termite Attack Rating", "setting": "[13]", "value": "1 and 2"}, {"measurement": "Mean Rating (termite attack)", "setting": "[14]", "value": 1.25}, {"measurement": "Termite Attack Rating", "setting": "[14]", "value": "1 and 2"}, {"measurement": "Mean Rating (termite attack)", "setting": "[15]", "value": 1.25}, {"measurement": "Termite Attack Rating", "setting": "[15]", "value": "1 and 2"}]}
